Measurements: PubChem BioAssay (NCI)
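How tested: cells in 96-well plates exposed to compound for 48 hours at five concentrations. Definition used: TGI = concentration required for complete inhibition of growth.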

Legend:
Assay in all cases: NCI tumour cell line growth inhibition, 48 h
[1] = tested on: DU-145 prostate
[2] = tested on: NCI-H460 lung
[3] = tested on: MDA-MB-231 breast
[4] = tested on: TK-10 renal
[5] = tested on: COLO 205 colon
[6] = tested on: OVCAR-3 ovarian
[7] = tested on: CCRF-CEM leukemia
[8] = tested on: LOX IMVI melanoma
[9] = tested on: KM12 colon
[10] = tested on: HL-60(TB) leukemia
[11] = tested on: ACHN renal
[12] = tested on: OVCAR-4 ovarian
[13] = tested on: SK-OV-3 ovarian
[14] = tested on: SW-620 colon
[15] = tested on: HCC-2998 colon
[16] = tested on: MDA-N
[17] = tested on: MOLT-4 leukemia
[18] = tested on: SK-MEL-28 melanoma
[19] = tested on: A498 renal

SMILES | TGI [1] | TGI [2] | TGI [3] | TGI [4] | TGI [5] | TGI [6] | TGI [7] | TGI [8] | TGI [9] | TGI [10] | TGI [11] | TGI [12] | TGI [13] | TGI [14] | TGI [15] | TGI [16] | TGI [17] | TGI [18] | TGI [19]
CCC(C#N)NCc1ccc(CNC(C#N)CC)cc1 (stereo unspecified) | > 100 µM | > 100 µM | > 100 µM | > 100 µM | > 100 µM | > 100 µM | > 100 µM | > 100 µM | > 100 µM | > 100 µM | > 100 µM | > 100 µM | > 100 µM | > 100 µM | > 100 µM | > 100 µM | > 100 µM | > 100 µM | > 100 µM
O=C1CCN=C(NC(=O)C(F)(F)F)N1CCc1c[nH]c2ccccc12 | > 100 µM | > 100 µM | > 100 µM | > 100 µM | > 100 µM | > 100 µM | > 100 µM | > 100 µM | > 100 µM | > 100 µM | > 100 µM | > 100 µM | > 100 µM | > 100 µM | > 100 µM | > 100 µM | > 100 µM | > 100 µM | > 100 µM
CSc1ccc(/C=C/C(=O)c2nc3ccccc3[nH]2)cc1 | 13.2 µM | 45.2 µM | 24.3 µM | 31.5 µM | 96 µM | 40.5 µM | > 100 µM | 45.9 µM | 57 µM | 43.1 µM | 43.2 µM | 76.9 µM | > 100 µM | 50.3 µM | 23.7 µM | > 100 µM | 18.6 µM | > 100 µM | 41.2 µM
CCOc1cc(/C=N\O)cc(/C=N/O)c1O | > 100 µM | > 100 µM | > 100 µM | > 100 µM | 50.1 µM | > 100 µM | > 100 µM | 71.9 µM | > 100 µM | > 100 µM | 59.4 µM | > 100 µM | > 100 µM | > 100 µM | > 100 µM | > 100 µM | 99 µM | > 100 µM | 51.1 µM
CC[C@]1(Cc2ccc(OC)c(OC)c2)C=[N+]([O-])O[C@H](OC2CCCCC2c2ccccc2)[C@@H]1OC(C)=O (stereo partly specified) | > 100 µM | > 100 µM | > 100 µM | > 100 µM | 40.5 µM | > 100 µM | 68.3 µM | > 100 µM | > 100 µM | 40.9 µM | > 100 µM | > 100 µM | > 100 µM | > 100 µM | > 100 µM | > 100 µM | 63 µM | > 100 µM | > 100 µM
COc1cc(/C=C2/CCCc3ccccc3C2=O)cc(OC)c1OC | > 58.3 µM | > 100 µM | > 51.4 µM | > 100 µM | > 60.8 µM | > 55.6 µM | > 100 µM | > 77 µM | > 50.1 µM | > 100 µM | > 100 µM | > 100 µM | > 68.1 µM | > 100 µM | > 74 µM | > 43.8 µM | > 35 µM | > 100 µM | > 75 µM
O=c1[nH]c(=S)n(-c2cccc3ccccc23)c(O)c1/C=C1\C=Nc2ccccc21 | 3.55 µM | 5.38 µM | 5.14 µM | 6.06 µM | 3.4 µM | 12.6 µM | 5.35 µM | 3.81 µM | 6.87 µM | 5.27 µM | 5.73 µM | 7.42 µM | 14.5 µM | 6.73 µM | 3.5 µM | 4.63 µM | 5.02 µM | 6.06 µM | 4.25 µM
CC(=O)NC1C(O)C(O)C(CO)OC1n1nc(SCc2ccccc2)c(=O)[nH]c1=O (stereo unspecified) | > 100 µM | > 100 µM | > 100 µM | > 100 µM | > 100 µM | > 100 µM | > 100 µM | > 100 µM | > 100 µM | > 100 µM | > 100 µM | > 100 µM | > 100 µM | > 100 µM | > 100 µM | > 100 µM | > 100 µM | > 100 µM | > 100 µM
CC(=O)O[C@H]1C[C@H]2[C@@H]([C@H](OC(C)=O)C[C@@H]3CC4(CC[C@@]32C)OOC2(CCCCC2)OO4)[C@@H]2CC[C@H]([C@H](C)CCC(N)=O)[C@@]12C | 3.52 µM | 5.06 µM | 4.22 µM | 6.27 µM | 3.68 µM | 3.17 µM | 3.13 µM |  | 3.3 µM | 3.81 µM | 3.12 µM | 4.21 µM | 25.5 µM | 5.77 µM | 7.41 µM | 3.71 µM | 2.9 µM | 24.7 µM | 18.1 µM
CC(=O)N(C(=O)CC(=O)NNCc1ccccc1Cl)c1ccc(Cl)cc1 | > 10 µM | > 10 µM | > 10 µM | > 10 µM | > 10 µM | > 10 µM | > 10 µM | > 10 µM | > 10 µM | > 10 µM | > 10 µM | > 10 µM | > 10 µM |  | > 10 µM | > 10 µM | > 10 µM | > 10 µM | > 10 µM
Cc1nnc(N2C(=O)C(=Cc3ccc(Cl)cc3)N=C2c2ccc(Cl)cc2)nc1/C=C\c1ccc(N(C)C)cc1 | > 100 µM | > 100 µM | > 100 µM | > 100 µM | > 100 µM | > 100 µM | > 100 µM | > 100 µM | > 100 µM | > 100 µM | > 100 µM | > 100 µM | > 100 µM | > 100 µM | > 100 µM | > 100 µM | > 100 µM | > 100 µM | > 100 µM
CCCCCCCCCCCCCCCCCCNc1ccn(C2OC(COP(=O)(O)OCC(COP(=O)(O)OCC3OC(n4cc(C)c(=O)[nH]c4=O)CC3N=[N+]=[N-])OCCCCCCCCCCCCCCCCCC)C(O)C2O)c(=O)n1 (stereo unspecified) | > 100 µM | > 100 µM | > 100 µM | > 100 µM | > 100 µM | > 100 µM | > 100 µM | 54.2 µM | > 100 µM | > 100 µM | > 100 µM | > 100 µM | > 100 µM | > 100 µM | > 100 µM | > 100 µM | > 100 µM | > 100 µM | > 100 µM
